Counter-ions that a name gives are not always drawn.

For orientation: IC50 means the concentration needed to halve the response being measured.

The target in data set [1] is T1, PI 3-kinase alpha (Homo sapiens, UniProt P42336). Briefly: Kinase Glo Luminescent Kinase Assay (Kglo), assay A. Particulars: read-out: Assay A PI3Kα IC50. Format: biochemical. On the technique in general: Kinase-Glo reads ATP consumption through a luciferase reaction.
Data set [2] addresses T2, PI 3-kinase beta (Homo sapiens, UniProt P42338). Briefly: Kinase Glo Luminescent Kinase Assay (Kglo), assay B. Format: biochemical. Particulars: read-out: Assay B PI3Kβ IC50.
Target sequence in this assay (P42338 whole entry): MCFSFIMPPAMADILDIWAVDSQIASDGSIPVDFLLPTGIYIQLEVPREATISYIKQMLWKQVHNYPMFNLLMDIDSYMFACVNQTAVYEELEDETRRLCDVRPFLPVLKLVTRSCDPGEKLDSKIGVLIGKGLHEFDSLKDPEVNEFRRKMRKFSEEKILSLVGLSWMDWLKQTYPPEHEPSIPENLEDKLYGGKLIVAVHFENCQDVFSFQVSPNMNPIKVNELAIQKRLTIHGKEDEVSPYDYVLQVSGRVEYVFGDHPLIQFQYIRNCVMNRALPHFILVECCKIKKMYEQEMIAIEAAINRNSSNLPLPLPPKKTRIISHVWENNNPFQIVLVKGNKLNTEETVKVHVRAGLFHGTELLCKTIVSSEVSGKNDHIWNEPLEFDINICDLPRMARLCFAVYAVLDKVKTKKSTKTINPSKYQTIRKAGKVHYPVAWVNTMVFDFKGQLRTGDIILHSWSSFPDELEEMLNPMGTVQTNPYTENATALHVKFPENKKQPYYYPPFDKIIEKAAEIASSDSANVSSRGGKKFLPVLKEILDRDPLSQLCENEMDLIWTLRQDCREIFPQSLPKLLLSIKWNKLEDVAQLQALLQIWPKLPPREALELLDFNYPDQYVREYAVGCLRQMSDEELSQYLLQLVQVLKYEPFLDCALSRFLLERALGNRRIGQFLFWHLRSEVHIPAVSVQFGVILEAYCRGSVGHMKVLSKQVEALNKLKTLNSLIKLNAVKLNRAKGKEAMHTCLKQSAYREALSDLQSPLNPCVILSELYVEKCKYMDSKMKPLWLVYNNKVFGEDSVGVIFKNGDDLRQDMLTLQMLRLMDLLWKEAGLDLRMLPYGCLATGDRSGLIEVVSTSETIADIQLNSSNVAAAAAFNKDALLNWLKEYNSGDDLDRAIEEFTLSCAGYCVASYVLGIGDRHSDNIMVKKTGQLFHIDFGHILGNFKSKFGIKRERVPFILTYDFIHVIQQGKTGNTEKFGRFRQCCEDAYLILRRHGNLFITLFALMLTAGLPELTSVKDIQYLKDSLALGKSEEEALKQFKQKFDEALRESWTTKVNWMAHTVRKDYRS
Target sequence in this assay (P27986 461-568 partner): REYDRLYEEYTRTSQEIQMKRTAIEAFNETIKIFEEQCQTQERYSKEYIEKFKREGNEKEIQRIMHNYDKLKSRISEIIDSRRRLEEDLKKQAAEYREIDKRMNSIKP
The target of a further data set is Vps34 (Homo sapiens, UniProt Q8NEB9). Briefly: Kinase Glo Luminescent Kinase Assay (Kglo), assay C. Particulars: read-out: Assay C VPS34 IC50. In kind it is biochemical.
For another data set, the target named is PI 4-kinase beta (Homo sapiens, UniProt Q9UBF8). Briefly: Kinase Glo Luminescent Kinase Assay (Kglo), assay D. Format: biochemical. Particulars: read-out: Assay D PI4Kβ IC50.
The target in data set [3] is T3, PI 3-kinase gamma (Homo sapiens, UniProt P48736). Briefly: TR-FRET Adapta assay, assay E. Format: biochemical. Particulars: read-out: Assay E PI3Kγ IC50. For orientation: TR-FRET usually uses a lanthanide donor and a delayed reading to cut background.
For the next data set, the target named is mTOR (Homo sapiens, UniProt P42345). Briefly: Lanthascreen kinase binding assay, assay G. As to conditions: read-out: Assay G mTOR IC50.
Data set [4] relates to IL-8-induced neutrophil shape change in human whole blood. Briefly: Whole blood neutrophil shape change assay (L). Format: cell-based. Particulars: Homo sapiens, Neutrophil, IL-8, human whole blood, read-out: Assay L WBSC IC50.
Data set [5] addresses T4, PI 3-kinase delta (Homo sapiens, UniProt O00329). Briefly: TR-FRET Adapta assay, assay F. As to conditions: read-out: Assay F PI3Kδ IC50.
Target sequence in this assay (O00329 whole entry): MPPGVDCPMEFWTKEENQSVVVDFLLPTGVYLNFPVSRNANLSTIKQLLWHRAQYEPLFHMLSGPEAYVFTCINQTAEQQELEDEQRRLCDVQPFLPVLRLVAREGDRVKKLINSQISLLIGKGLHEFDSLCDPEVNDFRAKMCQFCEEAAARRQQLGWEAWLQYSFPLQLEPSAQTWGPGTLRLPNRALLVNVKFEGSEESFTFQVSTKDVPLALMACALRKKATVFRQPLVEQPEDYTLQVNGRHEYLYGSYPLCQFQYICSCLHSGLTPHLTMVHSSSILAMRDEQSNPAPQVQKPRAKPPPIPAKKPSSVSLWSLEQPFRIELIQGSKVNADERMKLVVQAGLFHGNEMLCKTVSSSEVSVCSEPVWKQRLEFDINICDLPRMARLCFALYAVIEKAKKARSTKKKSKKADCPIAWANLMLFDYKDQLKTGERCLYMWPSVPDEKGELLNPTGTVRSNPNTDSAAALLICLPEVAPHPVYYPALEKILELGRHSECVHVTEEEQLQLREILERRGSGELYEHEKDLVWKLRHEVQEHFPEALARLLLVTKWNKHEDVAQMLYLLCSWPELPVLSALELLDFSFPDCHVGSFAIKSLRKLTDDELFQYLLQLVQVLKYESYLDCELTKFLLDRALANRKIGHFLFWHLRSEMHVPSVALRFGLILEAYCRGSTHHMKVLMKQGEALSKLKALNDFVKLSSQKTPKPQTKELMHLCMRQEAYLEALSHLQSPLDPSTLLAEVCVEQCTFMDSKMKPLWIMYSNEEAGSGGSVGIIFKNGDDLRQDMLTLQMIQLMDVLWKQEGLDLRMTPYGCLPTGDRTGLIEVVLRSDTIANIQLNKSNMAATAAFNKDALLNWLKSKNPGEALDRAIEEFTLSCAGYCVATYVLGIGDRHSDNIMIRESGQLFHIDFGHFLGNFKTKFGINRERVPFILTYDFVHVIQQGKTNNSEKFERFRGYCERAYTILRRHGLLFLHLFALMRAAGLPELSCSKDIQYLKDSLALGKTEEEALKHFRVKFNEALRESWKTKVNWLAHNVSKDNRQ
Target sequence in this assay (P27986 461-568 partner): as the sequence (P27986 461-568 partner) above
For data set [6], the target named is T1, PI 3-kinase alpha. Briefly: Cellular assay H1, p-Akt (S473) in Rat-1 cells, Surefire format. In kind it is cell-based. As to conditions: non-asterisked data: version H1 (Surefire format), Rat-1 cells; read-out: Assay H PI3Kα IC50.
For data set [7], the target named is T2, PI 3-kinase beta. Briefly: Cellular assay I1, p-Akt (S473) in Rat-1 cells, Surefire format. As to conditions: non-asterisked data: version I1 (Surefire format), Rat-1 cells; read-out: Assay I PI3Kβ IC50. In kind it is cell-based.
Target sequence in this assay (P42338 whole entry): as the sequence (P42338 whole entry) above
Target sequence in this assay (Q63787 whole entry partner): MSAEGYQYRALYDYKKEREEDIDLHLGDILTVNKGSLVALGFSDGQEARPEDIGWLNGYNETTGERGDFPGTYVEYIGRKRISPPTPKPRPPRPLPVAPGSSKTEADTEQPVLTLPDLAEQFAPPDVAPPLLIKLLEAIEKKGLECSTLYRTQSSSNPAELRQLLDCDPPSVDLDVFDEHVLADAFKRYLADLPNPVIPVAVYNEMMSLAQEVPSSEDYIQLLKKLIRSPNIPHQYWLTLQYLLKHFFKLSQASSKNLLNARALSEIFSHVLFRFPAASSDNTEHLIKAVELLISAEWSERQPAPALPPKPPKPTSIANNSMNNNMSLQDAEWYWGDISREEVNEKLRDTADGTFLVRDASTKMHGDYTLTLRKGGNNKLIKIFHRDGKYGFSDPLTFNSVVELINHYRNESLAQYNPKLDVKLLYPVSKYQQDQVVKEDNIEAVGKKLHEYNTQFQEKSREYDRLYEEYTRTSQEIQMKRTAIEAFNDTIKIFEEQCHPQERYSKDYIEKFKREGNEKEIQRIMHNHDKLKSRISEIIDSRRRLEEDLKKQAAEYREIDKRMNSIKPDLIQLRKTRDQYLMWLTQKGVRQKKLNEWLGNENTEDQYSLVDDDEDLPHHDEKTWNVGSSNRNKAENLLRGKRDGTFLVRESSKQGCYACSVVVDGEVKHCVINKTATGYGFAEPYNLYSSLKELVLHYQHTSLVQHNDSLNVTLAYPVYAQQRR
In data set [8] the target is T4, PI 3-kinase delta. Briefly: Cellular assay J1, p-Akt (S473) in Rat-1 cells, Surefire format. Format: cell-based. As to conditions: non-asterisked data: version J1 (Surefire format), Rat-1 cells; read-out: Assay J PI3Kδ IC50.
Target sequence in this assay (O00329 whole entry): as the sequence (O00329 whole entry) above
Target sequence in this assay (Q63787 whole entry partner): as the sequence (Q63787 whole entry partner) above
The target of data set [9] is T3, PI 3-kinase gamma. Briefly: Cellular U937 AKT assay K1 (MSD). In kind it is cell-based. Particulars: U937 cells, K1 format; read-out: Assay K1 PI3Kγ IC50.
Data set [10] in a line: Microsomal clearance assay (M). As to conditions: intrinsic clearance in rat liver microsomes. In general terms: Liver microsomes are a subcellular fraction often used to study metabolism.
Procedure: The experiments were performed in 96-well glass plates at 37° C. on an automated Tecan EVO platform. Test compounds at a concentration of 10 mM in pure DMSO were diluted 1:1000 in water to 10 μM. […] Reactions were initiated by the addition of 150 μL of a cofactor solution containing 2 mM NADPH.

Chain of PI 4-kinase beta (Q9UBF8 whole entry): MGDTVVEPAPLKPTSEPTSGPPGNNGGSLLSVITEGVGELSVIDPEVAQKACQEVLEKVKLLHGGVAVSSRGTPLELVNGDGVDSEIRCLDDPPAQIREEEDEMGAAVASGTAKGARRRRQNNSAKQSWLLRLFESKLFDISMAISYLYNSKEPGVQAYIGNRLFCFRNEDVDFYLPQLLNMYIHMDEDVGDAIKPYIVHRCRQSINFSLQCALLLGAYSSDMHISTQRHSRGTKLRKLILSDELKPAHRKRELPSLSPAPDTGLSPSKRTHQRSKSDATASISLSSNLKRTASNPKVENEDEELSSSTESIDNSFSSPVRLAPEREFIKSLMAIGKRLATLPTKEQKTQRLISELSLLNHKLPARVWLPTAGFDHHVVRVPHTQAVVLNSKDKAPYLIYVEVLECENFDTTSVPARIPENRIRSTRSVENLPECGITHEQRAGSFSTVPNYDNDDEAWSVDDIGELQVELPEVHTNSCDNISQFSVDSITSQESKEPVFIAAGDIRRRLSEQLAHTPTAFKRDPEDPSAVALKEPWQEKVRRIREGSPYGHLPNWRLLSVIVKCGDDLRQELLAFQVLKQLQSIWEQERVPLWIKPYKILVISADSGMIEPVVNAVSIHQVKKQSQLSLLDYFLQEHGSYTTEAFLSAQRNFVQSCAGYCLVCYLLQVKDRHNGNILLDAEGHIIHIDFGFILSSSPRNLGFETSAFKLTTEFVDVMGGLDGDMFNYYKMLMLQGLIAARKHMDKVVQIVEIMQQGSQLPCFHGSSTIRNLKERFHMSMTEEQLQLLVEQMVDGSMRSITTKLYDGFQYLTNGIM
Chain of Vps34 (Q8NEB9 whole entry, species assumed): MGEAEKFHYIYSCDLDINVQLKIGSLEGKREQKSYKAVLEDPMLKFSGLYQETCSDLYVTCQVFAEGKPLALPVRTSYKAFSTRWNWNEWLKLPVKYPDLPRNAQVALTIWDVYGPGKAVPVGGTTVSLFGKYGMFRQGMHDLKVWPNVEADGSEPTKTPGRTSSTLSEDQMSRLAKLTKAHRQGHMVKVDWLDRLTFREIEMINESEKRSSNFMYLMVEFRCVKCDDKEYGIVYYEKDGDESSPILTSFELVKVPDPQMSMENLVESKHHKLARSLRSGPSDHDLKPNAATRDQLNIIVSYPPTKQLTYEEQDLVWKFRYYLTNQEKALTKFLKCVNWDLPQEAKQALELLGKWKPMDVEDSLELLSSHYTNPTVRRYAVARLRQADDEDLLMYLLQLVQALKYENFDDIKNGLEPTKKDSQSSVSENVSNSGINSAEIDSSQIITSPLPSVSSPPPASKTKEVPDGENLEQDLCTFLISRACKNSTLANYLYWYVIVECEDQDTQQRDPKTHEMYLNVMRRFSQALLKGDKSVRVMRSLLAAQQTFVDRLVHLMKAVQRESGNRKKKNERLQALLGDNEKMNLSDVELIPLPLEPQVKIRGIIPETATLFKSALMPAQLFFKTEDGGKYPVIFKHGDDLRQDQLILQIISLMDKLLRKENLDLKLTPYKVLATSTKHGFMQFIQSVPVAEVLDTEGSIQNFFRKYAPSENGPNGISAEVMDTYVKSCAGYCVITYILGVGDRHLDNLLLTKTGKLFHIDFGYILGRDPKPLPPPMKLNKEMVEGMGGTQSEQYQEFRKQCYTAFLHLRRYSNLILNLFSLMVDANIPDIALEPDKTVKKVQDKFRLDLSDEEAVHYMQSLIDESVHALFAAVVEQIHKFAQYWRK
Procedure for mTOR: Lanthascreen™ Kinase Binding Assay for mTOR (G)
Binding of an inhibitor to the kinase competes for binding with the tracer, resulting in a loss of FRET.
50 nL of compound dilutions were dispensed onto white 384-well small volume polystyrene plate.

With `Cc1ccc(S(=O)(=O)NC[C@H]2CCNC2)cc1-c1cnc(N)c(-n2cncn2)n1` [Example 127.58, (S)-3-(5-amino-6-(1H-1,2,4-triazol-1-yl)pyrazin-2-yl)-4-methyl-N-(pyrrolidin-3-ylmethyl)benzenesulfonamide trifluoroacetic acid salt], the IC50 is 1.3 µM on PI 3-kinase alpha [1]; 1.3 µM on PI 3-kinase beta [2]; more than 10 µM on Vps34; more than 10 µM on PI 4-kinase beta; 0.042 µM at PI 3-kinase gamma [3]; 1.2 µM at mTOR. Also, the IC50 in data set [4] came to 23.6 µM; on PI 3-kinase delta [5], 0.46 µM.

`Cc1cc(-c2nc(-c3cc(S(=O)(=O)NC4CCC(CO)CC4)ccc3C)cnc2N)ccn1` (centres unmarked) [Example 129.1, 3-(5-amino-6-(2-methylpyridin-4-yl)pyrazin-2-yl)-N-(4-(hydroxymethyl)cyclohexyl)-4-methylbenzenesulfonamide]: the half-inhibitory concentration (IC50) on PI 3-kinase alpha [1] was 0.19 µM; at PI 3-kinase beta [2], 6.3 µM; at Vps34 it was more than 9.1 µM; on PI 4-kinase beta, 6.5 µM; at PI 3-kinase gamma [3], 0.023 µM; at mTOR, 6.3 µM. The IC50 turned out to be 0.721 µM in data set [4] and 0.25 µM at PI 3-kinase delta [5].

For the compound `Cc1ccc(S(=O)(=O)NC[C@@H]2CCOC2)cc1-c1cnc(N)c(-n2cncn2)n1` [Example 127.26], the IC50 on PI 3-kinase alpha [1] is 0.57 µM; on PI 3-kinase beta [2], 2 µM; on Vps34, more than 10 µM; at PI 4-kinase beta, 5.2 µM; at PI 3-kinase gamma [3], 0.15 µM; on mTOR, 5.9 µM. Further, the figures for the half-maximal inhibitory concentration (IC50) (in data set [4]; on PI 3-kinase delta [5]) were 1.79 µM and 0.23 µM, respectively.

As to `Cc1ccc(S(=O)(=O)N[C@H](C#N)CO)cc1-c1cnc(N)c(-n2cncn2)n1` [Example 127.48], the IC50 on PI 3-kinase alpha [1] was 1.2 µM; at PI 3-kinase beta [2], 6.2 µM; at Vps34, more than 10 µM; at PI 4-kinase beta, 5.9 µM; on PI 3-kinase gamma [3], 0.06 µM; in data set [4] it was 2.49 µM. In addition, at PI 3-kinase delta [5], the IC50 amounted to 3.2 µM.

On to `Cc1ccc(S(=O)(=O)NC[C@@H]2CCC(C)(C)O2)cc1-c1cnc(N)c(-n2cncn2)n1` [Example 127.39], for which the half-maximal inhibitory concentration (IC50) on PI 3-kinase alpha [1] was 1.4 µM; on PI 3-kinase beta [2], 2.3 µM; on Vps34, more than 10 µM; at PI 4-kinase beta it was more than 10 µM; on PI 3-kinase gamma [3], 0.1 µM; on mTOR, 9.3 µM. Further, the half-maximal inhibitory concentration (IC50) in [4] was 6.29 µM; on PI 3-kinase delta [5], 2.1 µM.

As to `Cc1ccc(S(=O)(=O)NCC(F)(F)F)cc1-c1cnc(N)c(-n2cncn2)n1` [Example 127, 3-(5-Amino-6-(1H-1,2,4-triazol-1-yl)pyrazin-2-yl)-4-methyl-N-(2,2,2-trifluoroethyl)benzenesulfonamide], the concentration for half-maximal inhibition (IC50) was 0.3 µM on PI 3-kinase alpha [1]; 1.1 µM at PI 3-kinase beta [2]; more than 10 µM at Vps34; 4.4 µM at PI 4-kinase beta; 0.024 µM at PI 3-kinase gamma [3]; 2.6 µM at mTOR. Further, the values for the IC50 (in data set [4]; at PI 3-kinase delta [5]) were 1.5 µM and 0.88 µM, respectively.

As for `Cc1cc(-c2nc(-c3cc(S(=O)(=O)N[C@H]4CC[C@@H](O)CC4)ccc3C)cnc2N)ccn1` [Example 76, 3-(5-Amino-6-(2-methylpyridin-4-yl)pyrazin-2-yl)-N-((1s,4s)-4-hydroxycyclohexyl)-4-methylbenzenesulfonamide], the IC50 on PI 3-kinase alpha [1] was 0.18 µM; at PI 3-kinase beta [2], 3.71 µM; at Vps34, more than 9.1 µM; at PI 4-kinase beta, 4.47 µM; on PI 3-kinase gamma [3], 0.064 µM; at mTOR, 4.19 µM. Further, the half-inhibitory concentration (IC50) on PI 3-kinase alpha [6] was 3.37 µM; on PI 3-kinase beta [7] it was more than 10 µM; at PI 3-kinase delta [8], 3.52 µM; at PI 3-kinase gamma [9], 0.203 µM; on PI 3-kinase delta [5], 0.48 µM. In addition, the “Assay M RLM CI(int)” value in data set [10] stood at 48 µL/min/mg.

As for `Cc1ccc(S(=O)(=O)NCCC(C)(C)O)cc1-c1cnc(N)c(-c2cccnc2)n1` [Example 119.5], the IC50 on PI 3-kinase alpha [1] was 0.75 µM; on PI 3-kinase beta [2] it was more than 9.1 µM; at Vps34 it was more than 9.1 µM; on PI 4-kinase beta it was 8 µM; on PI 3-kinase gamma [3] it was 0.082 µM; on mTOR, more than 9.1 µM. Moreover, the IC50 on PI 3-kinase alpha [6] was 4.9 µM; at PI 3-kinase beta [7] it was 1.66 µM; on PI 3-kinase delta [8], 4.85 µM; at PI 3-kinase gamma [9], 0.575 µM; on PI 3-kinase delta [5], 0.55 µM. In data set [10], the “Assay M RLM CI(int)” value came out at 118 µL/min/mg.

For the compound `Cc1cc(Cl)c(S(=O)(=O)NCC(C)(C)O)cc1-c1cnc(N)c(-n2cncn2)n1` [Example 124, 5-(5-Amino-6-(1H-1,2,4-triazol-1-yl)pyrazin-2-yl)-2-chloro-N-(2-hydroxy-2-methylpropyl)-4-methylbenzenesulfonamide], the IC50 at PI 3-kinase alpha [1] was 0.04 µM; at PI 3-kinase beta [2], 0.1 µM; on Vps34, more than 10 µM; at PI 4-kinase beta it was 0.42 µM; at PI 3-kinase gamma [3], 0.022 µM; at mTOR, 0.71 µM. Further, the IC50 at PI 3-kinase alpha [6] was determined as 0.25 µM; on PI 3-kinase beta [7], 0.81 µM; at PI 3-kinase delta [8], 0.29 µM; at PI 3-kinase gamma [9], 0.038 µM; at PI 3-kinase delta [5] it was 0.16 µM. Also, the “Assay M RLM CI(int)” value in [10] is 79 µL/min/mg.

`Cc1cc(-c2nc(-c3cc(S(=O)(=O)NCC4CCCO4)ccc3C)cnc2N)ccn1` (centres unmarked) [Example 129.17, 3-(5-amino-6-(2-methylpyridin-4-yl)pyrazin-2-yl)-4-methyl-N-((tetrahydrofuran-2-yl)methyl)benzenesulfonamide]: the IC50 on PI 3-kinase alpha [1] is 0.35 µM; at PI 3-kinase beta [2] it was 5.5 µM; on Vps34, more than 9.1 µM; at PI 4-kinase beta it was more than 9.1 µM; at PI 3-kinase gamma [3], 0.056 µM; on mTOR, more than 9.1 µM. Also, the IC50 at PI 3-kinase alpha [6] amounted to 2.5 µM; at PI 3-kinase beta [7] it was 3.72 µM; at PI 3-kinase delta [8], 1.94 µM; on PI 3-kinase gamma [9], 0.354 µM; on PI 3-kinase delta [5], 0.42 µM. Besides, in data set [10], the “Assay M RLM CI(int)” value was 104 µL/min/mg.

For the compound `Cc1ccc(S(=O)(=O)N[C@H]2CC[C@H](O)CC2)cc1-c1cnc(N)c(-c2ccnc(F)c2)n1` [Example 60, Trans-3-(5-Amino-6-(2-fluoropyridin-4-yl)pyrazin-2-yl)-N-(-4-hydroxycyclohexyl)-4-methylbenzenesulfonamide], the half-inhibitory concentration (IC50) was 0.11 µM at PI 3-kinase alpha [1]; 4.57 µM on PI 3-kinase beta [2]; more than 9.1 µM at Vps34; 3.63 µM on PI 4-kinase beta; 0.04 µM on PI 3-kinase gamma [3]; 8.35 µM at mTOR. The IC50 on PI 3-kinase alpha [6] amounted to 1.54 µM; at PI 3-kinase beta [7] it was 3.08 µM; on PI 3-kinase delta [8], 1.3 µM; at PI 3-kinase gamma [9], 0.093 µM; on PI 3-kinase delta [5] it was 0.22 µM. Further, in data set [10], the “Assay M RLM CI(int)” value was 24 µL/min/mg.

As for `Cc1ccc(S(=O)(=O)NCCC(F)(F)F)cc1-c1cnc(N)c(-n2cncn2)n1` [Example 127.31], the IC50 at PI 3-kinase alpha [1] was 0.19 µM; at PI 3-kinase beta [2] it was 1.55 µM; on Vps34, more than 10 µM; on PI 4-kinase beta it was 4.87 µM; at PI 3-kinase gamma [3], 0.067 µM; at mTOR, 7.95 µM. Further, the IC50 turned out to be 0.85 µM at PI 3-kinase alpha [6]; 1.71 µM on PI 3-kinase beta [7]; 1.05 µM on PI 3-kinase delta [8]; 0.103 µM at PI 3-kinase gamma [9]; 0.45 µM on PI 3-kinase delta [5]. Besides, the “Assay M RLM CI(int)” value in [10] is 192 µL/min/mg.

Regarding `Cc1cc(-c2nc(-c3cc(S(=O)(=O)NCC4CCOC4)ccc3C)cnc2N)ccn1` (centres unmarked) [Example 129.18, 3-(5-amino-6-(2-methylpyridin-4-yl)pyrazin-2-yl)-4-methyl-N-((tetrahydrofuran-3-yl)methyl)benzenesulfonamide], the IC50 on PI 3-kinase alpha [1] is 0.69 µM; on PI 3-kinase beta [2], 8.11 µM; on Vps34 it was more than 9.1 µM; on PI 4-kinase beta it was more than 9.1 µM; on PI 3-kinase gamma [3], 0.064 µM; at mTOR it was more than 9.1 µM. Moreover, the concentration for half-maximal inhibition (IC50) is 4.92 µM at PI 3-kinase alpha [6]; more than 10 µM on PI 3-kinase beta [7]; 5.63 µM at PI 3-kinase delta [8]; 0.528 µM on PI 3-kinase gamma [9]; 0.4 µM at PI 3-kinase delta [5]. Moreover, in data set [10], the “Assay M RLM CI(int)” value worked out at 97 µL/min/mg.

Regarding `CCOc1ccc(-c2nc(-c3cc(S(=O)(=O)NCCC(C)(C)O)ccc3C)cnc2N)cn1` [Example 119.13], the IC50 on PI 3-kinase alpha [1] was 0.58 µM; at PI 3-kinase beta [2] it was more than 9.1 µM; at Vps34, more than 9.1 µM; at PI 4-kinase beta it was 4.14 µM; on PI 3-kinase gamma [3], 0.098 µM; on mTOR, more than 9.1 µM. Moreover, the IC50 at PI 3-kinase alpha [6] was 2.45 µM; at PI 3-kinase beta [7] it was 6.75 µM; on PI 3-kinase delta [8], 3.26 µM; at PI 3-kinase gamma [9], more than 10 µM; at PI 3-kinase delta [5], 0.45 µM. Besides, the “Assay M RLM CI(int)” value in data set [10] came out at 98 µL/min/mg.

Source of the values: US10004732B2 (Novartis AG, priority 2014, dated 2018).
